Holding throughout (type): functional
For experiment [1], the system named is Pseudomonas aeruginosa. Nature of the experiment: Antibacterial activity against Pseudomonas aeruginosa assessed as bacterial growth inhibition by broth microdilution method.
The subject of experiment [2] is Bacillus subtilis. Description: Antibacterial activity against Bacillus subtilis assessed as bacterial growth inhibition by broth microdilution method.
Experiment [3] has as its system Staphylococcus aureus. Description: Antibacterial activity against methicillin-resistant Staphylococcus aureus ATCC 43300 assessed as bacterial growth inhibition incubated for 24 hrs by CLSI based broth microdilution method.
Experiment [4] concerns Streptococcus pneumoniae. Nature of the experiment: Antibacterial activity against erythromycin-resistant Streptococcus pneumoniae AB11 expressing ermB/mefA assessed as bacterial growth inhibition incubated for 24 hrs by CLSI based broth microdilution method.
Experiment [5] has as its system Staphylococcus aureus. Description: Antibacterial activity against penicillin-resistant Staphylococcus aureus ATCC 31007 assessed as bacterial growth inhibition incubated for 24 hrs by CLSI based broth microdilution method.
The subject of another experiment is Streptococcus pyogenes. Nature of the experiment: Antibacterial activity against erythromycin-resistant Streptococcus pyogenes clinical isolate 2 assessed as bacterial growth inhibition incubated for 24 hrs by CLSI based broth microdilution method.
Experiment [6] relates to Streptococcus pneumoniae. Description: Antibacterial activity against erythromycin-resistant Streptococcus pneumoniae B1 expressing ermB assessed as bacterial growth inhibition incubated for 24 hrs by CLSI based broth microdilution method.
In experiment [7] the test system is Staphylococcus aureus. Nature of the experiment: Antibacterial activity against multidrug-resistant Staphylococcus aureus clinical isolate assessed as bacterial growth inhibition by broth dilution method.
Experiment [8] concerns Bacillus subtilis. Description: Antibacterial activity against Bacillus subtilis assessed as bacterial growth inhibition by serial dilution method.
Experiment [9] relates to Staphylococcus aureus. Nature of the experiment: Antibacterial activity against Staphylococcus aureus assessed as bacterial growth inhibition by broth dilution method.
Experiment [10] deals with Staphylococcus epidermidis. Description: Antibacterial activity against Staphylococcus epidermidis assessed as bacterial growth inhibition by serial dilution method.
Experiment [11] has as its system Staphylococcus aureus. Description: Antibacterial activity against Staphylococcus aureus assessed as bacterial growth inhibition.
In experiment [12] the test system is Escherichia coli. Nature of the experiment: Antibacterial activity against Escherichia coli assessed as bacterial growth inhibition.
The subject of experiment [13] is Staphylococcus aureus. Description: Antibacterial activity against Staphylococcus aureus 209p ATCC 6538P assessed as bacterial growth inhibition incubated for 1 to 2 days by serial dilution method. Particulars: time 1-2 day.
Experiment [14] concerns Staphylococcus aureus. Nature of the experiment: Antibacterial activity against penicillin-resistant Staphylococcus aureus ATCC 31007 assessed as bacterial growth inhibition by standard dilution assay.
The test system of experiment [15] is Staphylococcus aureus. Description: Antibacterial activity against methicillin-resistant Staphylococcus aureus ATCC 43300 assessed as bacterial growth inhibition by standard dilution assay.
The subject of experiment [16] is Staphylococcus aureus. Nature of the experiment: Antibacterial activity against erythromycin-susceptible Staphylococcus aureus ATCC 25923 assessed as bacterial growth inhibition by standard dilution assay.
Experiment [17] relates to Staphylococcus aureus. Nature of the experiment: Antibacterial activity against methicillin-resistant Staphylococcus aureus clinical isolate 2 assessed as bacterial growth inhibition incubated for 8 hrs by CLSI based broth microdilution method.
Experiment [18] deals with Staphylococcus aureus. Description: Antibacterial activity against methicillin-resistant Staphylococcus aureus clinical isolate 1 assessed as bacterial growth inhibition incubated for 8 hrs by CLSI based broth microdilution method.
Experiment [19] deals with Pseudomonas aeruginosa. Description: Antibacterial activity against Pseudomonas aeruginosa assessed as bacterial growth inhibition by CLSI based broth microdilution method.
Experiment [20] has as its system Staphylococcus aureus. Nature of the experiment: Antibacterial activity against Staphylococcus aureus assessed as bacterial growth inhibition by CLSI based broth microdilution method.
Experiment [21] deals with Escherichia coli. Nature of the experiment: Antibacterial activity against Escherichia coli assessed as bacterial growth inhibition by CLSI based broth microdilution method.
The test system of experiment [22] is Staphylococcus aureus. Description: Antibacterial activity against Staphylococcus aureus ATCC 29213 assessed as bacterial growth inhibition incubated for 24 hrs by broth microdilution method.
Experiment [23] has as its system Staphylococcus aureus. Nature of the experiment: Antibacterial activity against Staphylococcus aureus clinical isolate AD3 assessed as bacterial growth inhibition incubated for 24 hrs by broth microdilution method.
For experiment [24], the system named is Staphylococcus aureus. Description: Antibacterial activity against Staphylococcus aureus clinical isolate 144 assessed as bacterial growth inhibition incubated for 24 hrs by broth microdilution method.
For experiment [25], the system named is Staphylococcus aureus. Nature of the experiment: Antibacterial activity against Staphylococcus aureus ATCC 43300 assessed as bacterial growth inhibition incubated for 24 hrs by broth microdilution method.

Values after ≈ are worked out from the molar mass of the structure shown.

Take `C=CCCCCC1CC(=O)N1Cc1cn(-c2cccc(Cl)c2)nn1` (stereo not given): the minimum inhibitory concentration (MIC) with Pseudomonas aeruginosa [1] and in the experiment on Bacillus subtilis [2] was 1.25 µg/mL (≈ 3.62 µM) in each case.
In the case of `CCCCCc1ccc(-c2cn(CC(=O)NNC(=O)O[C@H]3[C@H](C)[C@@H](O[C@H]4O[C@@H](C)C[C@@H](N(C)C)[C@@H]4O)[C@](C)(O)C[C@@H](C)CN(C)[C@H](C)C4OC(=O)O[C@@]4(C)[C@@H](CC)OC(=O)[C@@H]3C)nn2)cc1` (stereo not given in full), the minimum inhibitory concentration (MIC) in the experiment on Staphylococcus aureus [3], with Streptococcus pneumoniae [4], in the experiment on Staphylococcus aureus [5], with Streptococcus pyogenes and with Streptococcus pneumoniae [6] was 4 µg/mL (≈ 4.3 µM) each time.
Regarding `CCCCCc1ccc(-c2cn(CCCN3CCOC(=O)[C@H](C)[C@@H](O[C@H]4C[C@@](C)(OC)[C@@H](O)[C@H](C)O4)[C@H](C)[C@@H](O[C@H]4O[C@@H](C)C[C@@H](N(C)C)[C@@H]4O)[C@](C)(OC)C[C@@H](C)[C@H](O)[C@H](C)C3)nn2)cc1`, the MIC in the experiment on Staphylococcus aureus [3], in the experiment on Streptococcus pneumoniae [4], with Staphylococcus aureus [5], with Streptococcus pyogenes and in the experiment on Streptococcus pneumoniae [6] was 4 µg/mL (≈ 4.23 µM) each time.
Turning to `CCn1cc(C(=O)O)c(=O)c2cc(F)c(N3CCNCC3)cc21` [NORFLOXACIN], the minimum inhibitory concentration (MIC) in the experiment on Staphylococcus aureus [7] was 7.5 µg/mL (≈ 23.5 µM); in the experiment with Bacillus subtilis [8], 3.12 µg/mL (≈ 9.77 µM); in the experiment with Staphylococcus aureus [9] it was 7.5 µg/mL (≈ 23.5 µM); in experiment [10], 3.12 µg/mL (≈ 9.77 µM).
On to `Cn1c([N+](=O)[O-])cnc1COCc1cn(-c2ccnc3cc(Cl)ccc23)nn1`, for which the MIC in the experiment with Staphylococcus aureus [11] and with Escherichia coli [12] was 1 µg/mL (≈ 2.5 µM) in each case.
Take `CO/N=C(\C(=O)N[C@@H]1C(=O)N2C(C(=O)O)=C(CSc3nc(=O)c(O)nn3C)CS[C@H]12)c1csc(N)n1` [CEFTRIAXONE]: the MIC in the experiment with Staphylococcus aureus [13] worked out at 0.97 µg/mL (≈ 1.75 µM).
On to `CC[C@H]1OC(=O)[C@H](C)[C@@H](O[C@H]2C[C@@](C)(OC)[C@@H](O)[C@H](C)O2)[C@H](C)[C@@H](O[C@@H]2O[C@H](C)C[C@H](N(C)C)[C@H]2O)[C@](C)(O)C[C@@H](C)CN(C)[C@H](C)[C@@H](O)[C@]1(C)O` [AZITHROMYCIN], for which the MIC in the experiment on Staphylococcus aureus [3] was more than 256 µg/mL; with Staphylococcus aureus [14], more than 128 µg/mL; with Streptococcus pneumoniae [4] it was more than 256 µg/mL; in the experiment on Staphylococcus aureus [5], more than 256 µg/mL; in the experiment on Streptococcus pyogenes, more than 256 µg/mL; in the experiment with Staphylococcus aureus [15] it was more than 128 µg/mL. For the same compound, the results for the MIC in the experiment with Staphylococcus aureus [16] and in the experiment on Streptococcus pneumoniae [6] were more than 128 µg/mL and more than 256 µg/mL, respectively.
Regarding `CC(C)C[C@H](C(=O)N[C@@H]1Cc2ccc(c(Cl)c2)Oc2cc3cc(c2O[C@@H]2O[C@H](CO)[C@@H](O)[C@H](O)[C@H]2O[C@H]2C[C@](C)(NCCCCCCCc4ccccc4)[C@H](O)[C@H](C)O2)Oc2ccc(cc2Cl)[C@@H](O)[C@@H]2NC(=O)[C@H](NC(=O)[C@@H]3NC(=O)[C@H](CC(=O)O)NC1=O)c1ccc(O)c(c1)-c1c(O)cc(O)cc1[C@H](C(=O)O)NC2=O)n1cc(COc2ccc(-c3ccc(OCc4cn([C@@H](CC(C)C)C(=O)N[C@H]5Cc6ccc(c(Cl)c6)Oc6cc7cc(c6O[C@H]6O[C@@H](CO)[C@H](O)[C@@H](O)[C@@H]6O[C@@H]6C[C@@](C)(NCCCCCCCc8ccccc8)[C@@H](O)[C@@H](C)O6)Oc6ccc(cc6Cl)[C@H](O)[C@H]6NC(=O)[C@@H](NC(=O)[C@H]7NC(=O)[C@@H](CC(=O)O)NC5=O)c5ccc(O)c(c5)-c5c(O)cc(O)cc5[C@@H](C(=O)O)NC6=O)nn4)cc3)cc2)nn1`, the MIC in the experiment on Staphylococcus aureus [17] and in the experiment with Staphylococcus aureus [18] was 6.25 µg/mL (≈ 1.78 µM) each time.
Regarding `CC(C)C[C@@H](N)C(=O)N[C@H]1C(=O)N[C@@H](CC(N)=O)C(=O)N[C@H]2C(=O)N[C@H]3C(=O)N[C@H](C(=O)N[C@H](C(=O)O)c4cc(O)cc(O)c4-c4cc3ccc4O)[C@H](O)c3ccc(c(Cl)c3)Oc3cc2cc(c3O[C@@H]2O[C@H](CO)[C@@H](O)[C@H](O)[C@H]2O[C@H]2C[C@](C)(N)[C@H](O)[C@H](C)O2)Oc2ccc(cc2Cl)[C@H]1O`, the minimal inhibitory concentration (MIC) in the experiment on Staphylococcus aureus [17] and in the experiment with Staphylococcus aureus [18] was 1.56 µg/mL (≈ 1.09 µM) in each case.
Regarding `C=CCCCCC1CC(=O)N1Cc1cn(-c2cccc([N+](=O)[O-])c2)nn1` (stereo not given), the MIC in the experiment on Pseudomonas aeruginosa [1] and in the experiment on Bacillus subtilis [2] was 1.25 µg/mL (≈ 3.52 µM) each time.
Take `O=C(N/N=C/c1cn(-c2ccccc2)nc1-c1ccccc1)c1cccc(-n2cc(-c3ccccc3)nn2)c1`: the MIC with Pseudomonas aeruginosa [19], in the experiment with Staphylococcus aureus [20] and in the experiment on Escherichia coli [21] was 4 µg/mL (≈ 7.85 µM) each time.
Turning to `C=C[C@]1(C)C[C@@H](OC(=O)Cn2cc(CN3CCN(c4ccccc4C)CC3)nn2)[C@@]2(C)[C@@H]3C(=O)CC[C@@]3(CC[C@@H]2C)[C@@H](C)[C@@H]1O`, the MIC in the experiment with Staphylococcus aureus [22], in the experiment with Staphylococcus aureus [23], in the experiment with Staphylococcus aureus [24] and with Staphylococcus aureus [25] was 0.5 µg/mL (≈ 0.809 µM) throughout.

The values above are taken from ChEMBL document CHEMBL5344406, “1,2,3-Triazole-containing hybrids with potential antibacterial activity against ESKAPE pathogens” (2022).
